Test results taken from patent US10219516B2, “Molecules having pesticidal utility, and intermediates, compositions, and processes, related thereto” (priority 2015, dated 2019).

Key:
Format in all cases: in vivo
[1] = tested on: Beet Armyworm (Spodoptera exigua, LAPHEG); assay: Bioassay on Beet Armyworm (BAW), 128-well diet tray assay; details: Beet Armyworm, 128-well diet tray assay, read-out: BAW rating
How it was run: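 In a 128-well format, eight wells per compound received a surface dose of 50 μg/cm^2 on artificial diet. After drying, each well got one to five second instar larvae, held at 25° C. with 14:10 photoperiod. Mortality percentages after five to seven days were averaged.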

[2] = tested on: Cabbage Looper (Trichoplusia ni, TRIPNI); assay: Bioassay on Cabbage Looper (CL), 128-well diet tray assay; details: Trichoplusia ni; Cabbage Looper, 128-well diet tray assay; read-out: CL rating
How it was run: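 Diet-incorporation-free surface assay: 50 μg/cm^2 compound in acetone-water (90:10), dried on diet; 1–5 2nd-instar larvae/well; 8 wells; vented cover; 25° C., 14:10 L:D, 5–7 d; % mortality averaged over wells.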

[3] = tested on: Yellow Fever Mosquito (Aedes aegypti, AEDSAE); assay: Bioassay on Yellow Fever Mosquito (YFM), 96-well plate larval assay; details: Yellow Fever Mosquito, 96-well plate larval assay
How it was run: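 Aedes aegypti larvae (about 1 day old) in liver-powder water were added to plates dispensed from DMSO master plates (4000 ppm stock) diluted with 90:10 water/acetone; six replicate plates per master. Lidded plates were held at room temperature for 3 days, then each well was scored for mortality.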

SMILES: O=C(Nc1ccc2c(ccn2CCF)c1)c1cc(NC(=O)[C@H]2[C@H](c3cc(Cl)cc(Cl)c3)C2(Cl)Cl)ccc1Cl (relative stereo) [F496, 2-Chloro-5-(trans)-(2,2-dichloro-3-(3,5-dichlorophenyl)cyclopropane-1-carboxamido)-N-(1-(2-fluoroethyl)-1H-indol-5-yl)benzamide]
- pest or weed control at 50 µg/cm2 [1]: 50 to 100%
- pest or weed control at 50 µg/cm2 [2]: 50 to 100%
- YFM rating [3]: A (80-100)

SMILES: O=C(Nc1ccc2[nH]c(-c3ccccc3)cc2c1)c1cc(NC(=O)[C@H]2[C@H](c3cc(Cl)cc(Cl)c3)C2(Cl)Cl)ccc1Cl (relative stereo) [F497, 2-Chloro-5-(trans)-(2,2-dichloro-3-(3,5-dichlorophenyl)cyclopropane-1-carboxamido)-N-(2-phenyl-1H-indol-5-yl)benzamide]
- pest or weed control at 50 µg/cm2 [1]: 50 to 100%
- pest or weed control at 50 µg/cm2 [2]: 50 to 100%
- YFM rating [3]: A (80-100)

SMILES: O=C(Nc1ccc2c(c1)C(=O)N(c1ccc(F)cc1)C2=O)c1cc(NC(=O)[C@H]2[C@H](c3cc(Cl)cc(Cl)c3)C2(Cl)Cl)ccc1Cl (relative stereo) [F504, 2-Chloro-5-(trans)-(2,2-dichloro-3-(3,5-dichlorophenyl)cyclopropane-1-carboxamido)-N-(2-(4-fluorophenyl)-1,3-dioxoisoindolin-5-yl)benzamide]
- pest or weed control at 50 µg/cm2 [1]: 50 to 100%
- pest or weed control at 50 µg/cm2 [2]: 50 to 100%
- YFM rating [3]: A (80-100)

SMILES: CC(C)(C)OC(=O)Nc1cccc(NC(=O)c2cc(NC(=O)[C@H]3[C@H](c4ccc(F)c(Cl)c4)C3(Cl)Cl)ccc2Cl)n1 (relative stereo) [F506, tert-Butyl (6-(2-chloro-5-(trans-2,2-dichloro-3-(3-chloro-4-fluorophenyl)cyclopropane-1-carboxamido)benzamido)pyridin-2-yl)carbamate]
- pest or weed control at 50 µg/cm2 [1]: 50 to 100%
- pest or weed control at 50 µg/cm2 [2]: 50 to 100%
- YFM rating [3]: A (80-100)

SMILES: O=C(Nc1ccc2c(c1)CCN2)c1cc(NC(=O)[C@H]2[C@H](c3cc(Cl)cc(Cl)c3)C2(Cl)Cl)ccc1Cl (relative stereo) [F511, 2-Chloro-5-(trans)-(2,2-dichloro-3-(3,5-dichlorophenyl)cyclopropane-1-carboxamido)-N-(indolin-5-yl)benzamide]
- pest or weed control at 50 µg/cm2 [1]: 50 to 100%
- pest or weed control at 50 µg/cm2 [2]: 50 to 100%
- YFM rating [3]: A (80-100)

SMILES: CC(C)(C)OC(=O)N(C(=O)OC(C)(C)C)c1c(F)ccc(NC(=O)c2cc(NC(=O)[C@H]3[C@H](c4cccc(C(F)(F)F)c4)C3(Cl)Cl)ccc2Cl)c1F (relative stereo) [F516, trans-tert-Butyl-N-((tert-butoxy)carbonyl)-N-(3-(2-chloro-5-(2,2-dichloro-3-(3-(trifluoromethyl)phenyl)cyclopropane-1-carboxamido)benzamido)-2,6-difluorophenyl)carbamate]
- pest or weed control at 50 µg/cm2 [1]: 50 to 100%
- pest or weed control at 50 µg/cm2 [2]: 50 to 100%
- YFM rating [3]: A (80-100)

SMILES: CN1Cc2ccc(NC(=O)c3cc(NC(=O)[C@H]4[C@H](c5cc(Cl)cc(Cl)c5)C4(Cl)Cl)ccc3Cl)cc2C1=O (relative stereo) [F517, 2-Chloro-5-(trans)-(2,2-dichloro-3-(3,5-dichlorophenyl)cyclopropane-1-carboxamido)-N-(2-methyl-3-oxoisoindolin-5-yl)benzamide]
- pest or weed control at 50 µg/cm2 [1]: 50 to 100%
- pest or weed control at 50 µg/cm2 [2]: 50 to 100%
- YFM rating [3]: A (80-100)

SMILES: CN1Cc2cc(NC(=O)c3cc(NC(=O)[C@H]4[C@H](c5cc(Cl)cc(Cl)c5)C4(Cl)Cl)ccc3Cl)ccc2C1=O (relative stereo) [F518, 2-Chloro-5-(trans)-(2,2-dichloro-3-(3,5-dichlorophenyl)cyclopropane-1-carboxamido)-N-(2-methyl-1-oxoisoindolin-5-yl)benzamide]
- pest or weed control at 50 µg/cm2 [1]: 50 to 100%
- pest or weed control at 50 µg/cm2 [2]: 50 to 100%
- YFM rating [3]: A (80-100)

SMILES: O=C(Nc1cc2cc[nH]c2cc1F)c1cc(NC(=O)[C@H]2[C@H](c3cc(Cl)cc(Cl)c3)C2(Cl)Cl)ccc1Cl (relative stereo) [F527, 2-Chloro-5-(trans)-(2,2-dichloro-3-(3,5-dichlorophenyl)cyclopropane-1-carboxamido)-N-(6-fluoro-1H-indol-5-yl)benzamide]
- pest or weed control at 50 µg/cm2 [1]: 50 to 100%
- pest or weed control at 50 µg/cm2 [2]: 50 to 100%
- YFM rating [3]: A (80-100)

SMILES: O=C(Nc1cccc2[nH]ccc12)c1cc(NC(=O)[C@H]2[C@H](c3cc(Cl)cc(Cl)c3)C2(Cl)Cl)ccc1Cl (relative stereo) [F528, 2-Chloro-5-(trans)-(2,2-dichloro-3-(3,5-dichlorophenyl)cyclopropane-1-carboxamido)-N-(1H-indol-4-yl)benzamide]
- pest or weed control at 50 µg/cm2 [1]: 50 to 100%
- pest or weed control at 50 µg/cm2 [2]: 50 to 100%
- YFM rating [3]: A (80-100)

SMILES: O=C(Nc1cccc2cc[nH]c12)c1cc(NC(=O)[C@H]2[C@H](c3cc(Cl)cc(Cl)c3)C2(Cl)Cl)ccc1Cl (relative stereo) [F529, 2-Chloro-5-(trans)-(2,2-dichloro-3-(3,5-dichlorophenyl)cyclopropane-1-carboxamido)-N-(1H-indol-7-yl)benzamide]
- pest or weed control at 50 µg/cm2 [1]: 50 to 100%
- pest or weed control at 50 µg/cm2 [2]: 50 to 100%
- YFM rating [3]: A (80-100)

SMILES: Cn1ccc2c(NC(=O)c3cc(NC(=O)[C@H]4[C@H](c5cc(Cl)cc(Cl)c5)C4(Cl)Cl)ccc3Cl)cccc21 (relative stereo) [F530, 2-Chloro-5-(trans)-(2,2-dichloro-3-(3,5-dichlorophenyl)cyclopropane-1-carboxamido)-N-(1-methyl-1H-indol-4-yl)benzamide]
- pest or weed control at 50 µg/cm2 [1]: 50 to 100%
- pest or weed control at 50 µg/cm2 [2]: 50 to 100%
- YFM rating [3]: A (80-100)

SMILES: Cn1ccc2cccc(NC(=O)c3cc(NC(=O)[C@H]4[C@H](c5cc(Cl)cc(Cl)c5)C4(Cl)Cl)ccc3Cl)c21 (relative stereo) [F531, 2-Chloro-5-(trans)-(2,2-dichloro-3-(3,5-dichlorophenyl)cyclopropane-1-carboxamido)-N-(1-methyl-1H-indol-7-yl)benzamide]
- pest or weed control at 50 µg/cm2 [1]: 50 to 100%
- pest or weed control at 50 µg/cm2 [2]: 50 to 100%
- YFM rating [3]: A (80-100)

SMILES: O=C(Nc1ccc(F)cc1F)c1cc(NC(=O)[C@H]2[C@H](c3ccc(Br)c(Br)c3)C2(Cl)Cl)ccc1Cl (relative stereo) [F532, 2-Chloro-5-(trans)-(2,2-dichloro-3-(3,4-dibromophenyl)cyclopropane-1-carboxamido)-N-(2,4-difluorophenyl)benzamide]
- pest or weed control at 50 µg/cm2 [1]: 50 to 100%
- pest or weed control at 50 µg/cm2 [2]: 50 to 100%
- YFM rating [3]: A (80-100)

SMILES: O=C(Nc1ccc(F)cc1)c1cc(NC(=O)[C@H]2[C@H](c3cc(F)c(Br)c(F)c3)C2(Cl)Cl)ccc1Cl (relative stereo) [F538, 5-(trans-3-(4-bromo-3,5-difluorophenyl)-2,2-dichlorocyclopropane-1-carboxamido)-2-chloro-N-(4-fluorophenyl)benzamide]
- pest or weed control at 50 µg/cm2 [1]: 50 to 100%
- pest or weed control at 50 µg/cm2 [2]: 50 to 100%
- YFM rating [3]: A (80-100)

SMILES: COc1cc([C@H]2[C@H](C(=O)Nc3ccc(Cl)c(C(=O)Nc4ccc(F)cc4)c3)C2(Cl)Cl)cc(F)c1Br (relative stereo) [F539, 5-(trans-3-(4-Bromo-3-fluoro-5-methoxyphenyl)-2,2-dichlorocyclopropane-1-carboxamido)-2-chloro-N-(4-fluorophenyl)benzamide]
- pest or weed control at 50 µg/cm2 [1]: 50 to 100%
- pest or weed control at 50 µg/cm2 [2]: 50 to 100%
- YFM rating [3]: A (80-100)

SMILES: O=C(Nc1ccc(F)cc1F)c1cc(NC(=O)[C@H]2[C@H](c3cc(F)c(Br)c(F)c3)C2(Cl)Cl)ccc1Cl (relative stereo) [F541, 5-(trans-3-(4-Bromo-3,5-difluorophenyl)-2,2-dichlorocyclopropane-1-carboxamido)-2-chloro-N-(2,4-difluorophenyl)benzamide]
- pest or weed control at 50 µg/cm2 [1]: 50 to 100%
- pest or weed control at 50 µg/cm2 [2]: 50 to 100%
- YFM rating [3]: A (80-100)

SMILES: COc1cc([C@H]2[C@H](C(=O)Nc3ccc(Cl)c(C(=O)Nc4ccc(F)cc4F)c3)C2(Cl)Cl)cc(F)c1Br (relative stereo) [F542, 5-(trans-3-(4-Bromo-3-fluoro-5-methoxyphenyl)-2,2-dichlorocyclopropane-1-carboxamido)-2-chloro-N-(2,4-difluorophenyl)benzamide]
- pest or weed control at 50 µg/cm2 [1]: 50 to 100%
- pest or weed control at 50 µg/cm2 [2]: 50 to 100%
- YFM rating [3]: A (80-100)

SMILES: COc1c(F)cc([C@H]2[C@H](C(=O)Nc3ccc(Cl)c(C(=O)Nc4ccc(F)cc4F)c3)C2(Cl)Cl)cc1Br (relative stereo) [F543, 5-(trans-3-(3-Bromo-5-fluoro-4-methoxyphenyl)-2,2-dichlorocyclopropane-1-carboxamido)-2-chloro-N-(2,4-difluorophenyl)benzamide]
- pest or weed control at 50 µg/cm2 [1]: 50 to 100%
- pest or weed control at 50 µg/cm2 [2]: 50 to 100%
- YFM rating [3]: A (80-100)

SMILES: COc1cc(NC(=O)c2cc(NC(=O)[C@H]3[C@H](c4cc(Cl)cc(Cl)c4)C3(Cl)Cl)ccc2Cl)ccn1 (relative stereo) [F544, 2-Chloro-5-(trans-2,2-dichloro-3-(3,5-dichlorophenyl)cyclopropane-1-carboxamido)-N-(2-methoxypyridin-4-yl)benzamide]
- pest or weed control at 50 µg/cm2 [1]: 50 to 100%
- pest or weed control at 50 µg/cm2 [2]: 50 to 100%
- YFM rating [3]: A (80-100)

SMILES: COc1cc(NC(=O)c2cc(NC(=O)[C@H]3[C@H](c4ccc(F)c(Cl)c4)C3(Cl)Cl)ccc2Cl)ccn1 (relative stereo) [F545, 2-Chloro-5-(trans-2,2-dichloro-3-(3-chloro-4-fluorophenyl)cyclopropane-1-carboxamido)-N-(2-methoxypyridin-4-yl)benzamide]
- pest or weed control at 50 µg/cm2 [1]: 50 to 100%
- pest or weed control at 50 µg/cm2 [2]: 50 to 100%
- YFM rating [3]: A (80-100)
